Test results as given in patent US20240262847A1, “COVALENT RAS INHIBITORS AND USES THEREOF” (Revolution Medicines, Inc., priority 2021, published 2024).

Target: T1, GDP-loaded K-Ras (1-169) G12D, C51S, C80L, C118S (Homo sapiens, UniProt P01116, C118S/C51S/C80L/G12D)
T1 construct: GDP-loaded K-Ras (1-169) G12D, C51S, C80L, C118S
Test: K-Ras G12D(GDP) cross-linking assay (mass spectrometry, percent covalent modification)
Format: binding
Conditions: room temperature
Description: Protocol: K-Ras G12D(GDP) Cross-Linking Assay
Note: While the Following Protocol Outlines the Procedure for K-Ras G12D(GDP), a Person of Skill in the Art May Substitute Other Ras Proteins, and May Also Substitute a Non-Hydrolyzable GTP Analog for GDP to Study GTP Bound Ras Protein.
GDP-loaded K-Ras (1-169) G12D, C51S, C80L, C118S and GDP-loaded K-Ras (1-169) C51S, C80L, C118S were adjusted to 50 μM in K-Ras assay buffer (12.5 mM HEPES, 75 mM NaCl and 1 mM MgCl2 at pH 7.4). A 5 μL aliquot of each protein solution was added to each well of a 96-well microplate containing 40 μL of assay buffer. Initial compound stocks were prepared in DMSO at 100 times their final assay concentration. Compounds were then diluted 10-fold into K-Ras assay buffer to 10 times their final concentration. A 5 μL aliquot of each diluted compound solution was added to each protein solution in the 96-well microplate to initiate the reaction, which then proceeded at room temperature. Typical final compound concentrations were 2, 10, and 25 μM. At each time point, the reactions were analyzed immediately or quenched with 5 μL of a 5% formic acid solution and kept at 4° C. until analysis. Typical assay endpoints were 1, 6 and 24 h.
Data collection took place on an Agilent 6230 TOF Mass Spectrometer. Complete reactions were injected onto a C4 reverse-phase column to separate protein from buffer components prior to entering the mass spectrometer. The proteins were eluted from the column by increasing acetonitrile fraction in the mobile phase and fed directly into the mass analyzer. Initial analysis of raw data took place on Agilent MassHunter BioConfirm software and consisted of deconvolution of multiple protein charge states with the maximum entropy algorithm, with a mass step of 1 Da. The heights of all deconvoluted protein masses were exported for further data analysis. The percent modification of each protein was then determined by calculating the peak height of the covalently modified K-Ras species as a percentage of the sum total of K-Ras protein peak height.

| Structure (SMILES) | cross-linking to K-Ras G12D (at times up to 24 hours) | cross-linking to K-Ras G12D (at 24 hours) |
| --- | --- | --- |
| O=C([C@H]1CN1)N1[C@@H]2CC[C@H]1CN(c1nc(OC[C@@]34CCCN3C[C@H](F)C4)nc3c(F)c(-c4cc(O)cc5cccc(F)c45)ncc13)C2 [Compound B1, ((R)-aziridin-2-yl)((1R,5S)-3-(8-fluoro-7-(8-fluoro-3-hydroxynaphthalen-1-yl)-2-(((2R,7aS)-2-fluorotetrahydro-1H-pyrrolizin-7a(5H)-yl)methoxy)pyrido[4,3-d]pyrimidin-4-yl)-3,8-diazabicyclo[3.2.1]octan-8-yl)methanone] | no cross-linking |  |
| O=C([C@@H]1CN1)N1[C@@H]2CC[C@H]1CN(c1nc(OC[C@@]34CCCN3C[C@H](F)C4)nc3c(F)c(-c4cc(O)cc5cccc(F)c45)ncc13)C2 [Compound B2, ((S)-aziridin-2-yl)((1R,5S)-3-(8-fluoro-7-(8-fluoro-3-hydroxynaphthalen-1-yl)-2-(((2R,7aS)-2-fluorotetrahydro-1H-pyrrolizin-7a(5H)-yl)methoxy)pyrido[4,3-d]pyrimidin-4-yl)-3,8-diazabicyclo[3.2.1]octan-8-yl)methanone] | no cross-linking |  |
| Oc1cc(-c2ncc3c(N4C[C@H]5CC[C@@H](C4)N5C[C@H]4CN4)nc(OC[C@@]45CCCN4C[C@H](F)C5)nc3c2F)c2c(F)cccc2c1 [Compound B3, 4-(4-((1R,5S)-8-(((R)-aziridin-2-yl)methyl)-3,8-diazabicyclo[3.2.1]octan-3-yl)-8-fluoro-2-(((2R,7aS)-2-fluorotetrahydro-1H-pyrrolizin-7a(5H)-yl)methoxy)pyrido[4,3-d]pyrimidin-7-yl)-5-fluoronaphthalen-2-ol] |  | greater than 0% |
| Oc1cc(-c2ncc3c(N4C[C@H]5CC[C@@H](C4)N5C[C@@H]4CN4)nc(OC[C@@]45CCCN4C[C@H](F)C5)nc3c2F)c2c(F)cccc2c1 [Compound B4, 4-(4-((1R,5S)-8-(((S)-aziridin-2-yl)methyl)-3,8-diazabicyclo[3.2.1]octan-3-yl)-8-fluoro-2-(((2R,7aS)-2-fluorotetrahydro-1H-pyrrolizin-7a(5H)-yl)methoxy)pyrido[4,3-d]pyrimidin-7-yl)-5-fluoronaphthalen-2-ol] | no cross-linking |  |
| O=C([C@H]1CN1)N1C=C(c2ncc3c(N4C[C@H]5CC[C@@H](C4)N5)nc(OC[C@@]45CCCN4C[C@H](F)C5)nc3c2F)c2c(F)cccc2C1 [Compound B23, (4-(4-((1R,5S)-3,8-diazabicyclo[3.2.1]octan-3-yl)-8-fluoro-2-(((2R,7aS)-2-fluorotetrahydro-1H-pyrrolizin-7a(5H)-yl)methoxy)pyrido[4,3-d]pyrimidin-7-yl)-5-fluoroisoquinolin-2(1H)-yl)((R)-aziridin-2-yl)methanone] | no cross-linking |  |
| O=C([C@@H]1CN1)N1C=C(c2ncc3c(N4C[C@H]5CC[C@@H](C4)N5)nc(OC[C@@]45CCCN4C[C@H](F)C5)nc3c2F)c2c(F)cccc2C1 [Compound B24, (4-(4-((1R,5S)-3,8-diazabicyclo[3.2.1]octan-3-yl)-8-fluoro-2-(((2R,7aS)-2-fluorotetrahydro-1H-pyrrolizin-7a(5H)-yl)methoxy)pyrido[4,3-d]pyrimidin-7-yl)-5-fluoroisoquinolin-2(1H)-yl)((S)-aziridin-2-yl)methanone] | no cross-linking |  |
